Data as given in US20240408167A1, “COMPOSITION FOR TREATING OCULAR DISEASES CONTAINING PEPTIDE” (Encuragen Inc., priority 2023, published 2024).
Counter-ions that a name gives are not always drawn. Like-named read-outs stand apart in the source and are kept apart here.

Test system: BALB/3T3 clone A31 cells
Assay: cells
Type: cell-based
Conditions: for IC50: Mus musculus, light or radiation study, BALB/3T3 clone A31 cells, neutral red
Description: To evaluate the phototoxicity of (PEG)-BHD1028, the potential phototoxicity of (PEG)-BHD1028 was measured in the BALB/3T3 clone A31 cells after UV exposure. The test substance and the positive control group (chlorpromazine hydrochloride; CPZ) were dissolved in a Hank's Balanced Salt Solution (HBSS) and then diluted with a Hank's Balanced Salt Solution (HBSS). The cells were trypsinized and counted. Thereafter, 1×10^4 cells per well were seeded in a 96-well plate and cultured for approximately 24 hours before treating the test samples. One hour after the sample treatment, the plate was irradiated with a UV irradiation system (UVA, 365 nm). After UV irradiation, the plate was incubated for 24 hours. The cell viability of the cultured cells was confirmed by measuring the absorbance at 540 nm using the neutral red staining method.

MPE (mean photo effect) (mouse, 24 h): 0.489
PIF (photo irradiation factor) (mouse, 24 h): 29.668
SMILES: CN(C)CCCN1c2ccccc2Sc2ccc(Cl)cc21 [CPZ, chlorpromazine hydrochloride, reference compound]
phototoxicity classification by PIF and MPE: positive results
IC50 (UVA 365 nm irradiation, read-out: IC50 UV (+Irr)): 1.26 µg/mL
IC50 (without UV irradiation, read-out: IC50 UV (−Irr)): 37.5 µg/mL
